Measured values as given in publication PMC6348444, “New Water-Soluble Copper(II) Complexes with Morpholine–Thiosemicarbazone Hybrids: Insights into the Anticancer and Antibacterial Mode of Action” (Journal of Medicinal Chemistry, 2018).
Converted amounts (≈) assume the structure as drawn. Read-outs that look alike come from different tables or passages of the source.

Columns and labels:
[1] = system: Staphylococcus aureus CECT 86 (ATCC 12600); experiment: MIC microdilution, S. aureus; format: cell-based; settings: planktonic cells; for MIC50 / MIC: Staphylococcus aureus; for MIC50 / S. aureus MIC50: growth inhibited at 50%; for MIC / S. aureus MIC100: lowest concentration completely inhibiting growth; for MIC: read-out: S. aureus MIC100
Method: (§1) Wild-type P. aeruginosa PAO1 strain CECT 4122 (ATCC 15692) and S. aureus CECT 86 (ATCC 12600) were obtained from the Spanish Type Culture Collection (CECT). All strains were routinely cultivated in TSB medium (Sharlab, Spain) at 37 °C. MIC assays were determined by the microdilution method using TSB broth following the method described by the Clinical and Laboratory standards Institute.[94] In brief, compounds were diluted in a 96-well microtiter plate (tissue culture-treated polystyrene; […]

[2] = n-octanol/water distribution coefficient, shake-flask; format: physicochemical; settings: n-octanol/buffered aqueous solution, pH 7.40, UV-vis; for logD: pH 7.4, read-out: log D7.4
Method: The titrations were carried out under a nitrogen atmosphere.

A2780 cells [3] = experiment: MTT cytotoxicity assay, A2780; format: cell-based, human
A2780cisR cells = experiment: MTT cytotoxicity assay, A2780cisR; format: cell-based, human; settings: for IC50: MTT assay, 72 h exposure, cisplatin-resistant A2780cisR, read-out: IC50 A2780cis; for RF (resistance factor): IC50(A2780cisR)/IC50(A2780)
HEK293 cells = experiment: MTT cytotoxicity assay, HEK293; format: cell-based, human; settings: for IC50: MTT assay, 72 h exposure, noncancerous cells; for SF (selectivity factor): IC50(HEK293)/IC50(A2780)
[4] = system: Pseudomonas aeruginosa PAO1 CECT 4122 (ATCC 15692); experiment: MIC microdilution, P. aeruginosa; format: cell-based; settings: planktonic cells; for MIC50 / MIC: Pseudomonas aeruginosa; for MIC50 / P. aeruginosa MIC50: growth inhibited at 50%; for MIC / P. aeruginosa MIC100: lowest concentration completely inhibiting growth; for MIC: read-out: P. aeruginosa MIC100
Method: as §1

[5] = T = 298 K, I = 0.10 M (KCl)
[6] = Cyclic voltammetry, redox potentials; format: physicochemical; settings: first reduction step
Method: To assess the redox properties of 1-6, detailed electrochemical and spectroscopic studies in various solvents were performed using cyclic voltammetry as well as EPR-spectroelectrochemistry. Additionally, the UV-vis spectra of 1-5 were measured (Figure S8). […] The second reduction step occurred at -1.8 V versus Fc^+/Fc (-1.16 V vs NHE) and was less reversible, indicating a ligand-based reduction. […] In aqueous solutions, the reduction potentials shifted to the less negative values, and reduction was less reversible as shown for 2 in Figure S10. […] Cyclic voltammetric experiments were performed as described previously.[46] The cyclic voltammograms were measured in the cathodic region in different solvents (DMSO, methanol, DMSO/H2O). The analytical purity grade LiClO4 (Sigma-Aldrich) and distilled and deionized water were used for preparation of 1 mM aqueous solutions of the investigated complexes 1-6. EPR spectra were recorded with the EMX plus. In situ UV-vis-NIR spectroelectrochemical measurements were performed on a spectrometer (Avantes, Model AvaSpec-2048x14-USB2 in the spectroelectrochemical cell kit ([…]3)) with the Pt-microstructured honeycomb working electrode, purchased from Pine Research Instrumentation. The cell was positioned in the CUV-UV Cuvette Holder (Ocean Optics) connected to the diode-array UV-vis-NIR spectrometer by optical fibers. UV-vis-NIR spectra were processed using the AvaSoft 7.7 software package. Halogen and deuterium lamps were used as light sources (Avantes, Model AvaLight-DH-S-BAL). The in situ EPR spectroelectrochemical experiments were carried out under an argon atmosphere in the EPR flat cell equipped with a large platinum mesh working electrode. The freshly prepared solutions were carefully purged with argon and the electrolytic cell was polarized in the galvanostatic mode directly in the cylindrical EPR cavity TM-110 (ER 4103 TM), and the EPR spectra were measured in situ.

A2780 cells [7] = experiment: Cellular accumulation of Cu by ICP-MS; format: cell-based, human; settings: 24 h exposure, 1 μM
Description: The ability of anticancer drugs to penetrate biological membranes, tissues, and barriers underlies their biological, pharmacokinetic, and metabolic properties. These properties can be predicted by calculating physicochemical characteristics of drug candidates using molecular descriptors.[30] […] The results are shown in Table S7 in the Supporting Information. On the basis of the calculated physicochemical parameters, we determined if novel compounds belonged to the drug-like chemical space, which is commonly defined by the well-known Lipinski rule, or to the known drug space (KDS), which includes all small compounds in medical use.[31] […] Following the calculations, we determined the lipophilicity of all compounds experimentally (log D7.4, Tables 1 and 2). It is known that cancer cells accumulate hydrophilic compounds to a smaller extent relative to hydrophobic compounds, thereby affecting their activity. […] As expected, proligands were more lipophilic than the corresponding Cu(II) species, which are positively charged at physiological pH (Figure 3b). […] The lipophilicity of 2–5 increased in the following order 4 < 2 < 3 < 5, and correlated well with their cytotoxicity in cancer cells, with the exception of 3. Subsequently, we determined the total cellular accumulation of Cu in A2780 cells by ICP–MS upon 24 h exposure to 1–6 in comparison with CuCl2 (Table 2). […] The accumulation increased in the order 6 < 1 < 3 < 4 < 2 < 5.
Cellular accumulation of 1–6 was determined in A2780 cells. Cells were seeded into Cellstar 6-well plates (Greiner Bio-one) at a density of 60 × 10^4 cells/well (2 mL per well). After the cells were allowed to resume exponential growth for 24 h, they were exposed to 1–6 at 1 μM for 24 h at 37 °C. The cells were washed twice with 1 mL of PBS and lysed with RIPA lysis buffer for 5–10 min at 4 °C. The cell lysates were scraped from the wells and transferred to separate 1.5 mL microtubes. The supernatant was then collected after centrifugation (13 000 rpm, 4 °C for 15 min) and total protein content of each sample was quantified via Bradford’s assay. Cell lysates were transferred to 2 mL glass vials and then digested with ultrapure 65% HNO3 at 100 °C for 24 h. The resulting solution was diluted to 1 mL (2–4% v/v HNO3) with ultrapure Milli-Q water. Cu content of each sample was quantified by ICP–MS. In was used as an internal standard. Cu and In were measured at m/z 64 and m/z 115, respectively. Metal standards for calibration curve (0, 0.5, 1, 2, 5, 10, 20, and 40 ppb) were freshly prepared before each measurement. All readings were made in triplicates in He mode. For temperature-dependent cellular accumulation experiments, A2780 cells were seeded into 35 n 10 mm tissue culture plates at a density of 60 0 10^4 cells/plate. After the cells were allowed to resume exponential growth for 24 h, they were exposed to 2 at 3 μM for 10, 30, 60, and 120 min at 37 and 4 °C. The subsequent analysis was performed as described above. For energy-dependent experiments, A2780 cells were seeded into 35 5 10 mm tissue culture plates at a density of 1 0 10^6 cells/plate. After the cells were allowed to resume exponential growth for 24 h, they were preincubated with oligomycin (5 μM) for 1 or 4 h or with cycloheximide (100 μM) for 4 h and further co-incubated with 3 μM of 2 at 37 °C. To induce total starvation, after the cells were allowed to resume exponential growth for 24 h, RPMI media was replaced with HBSS, and cells were preincubated in HBSS for 1 h and further incubated with 3 μM of 2 for 1 h at 37 °C. The subsequent analysis was performed as described above.

[8] = Homo sapiens, A2780, 72 h exposure

For `NC(=S)NN=Cc1ccc(CN2CCOCC2)cn1` [HL^1, 5-(Morpholinomethyl)pyridine-2-carboxaldehyde Thiosemicarbazone], the MIC50 [1] was 100 µg/mL (≈ 358 µM), the MIC [1] was greater than 400 µg/mL and the logD [2] was 0.46. The IC50 (A2780 cells [3]; [8]) was 7600 ± 1900 nM, the IC50 (A2780cisR cells; Homo sapiens) was 13000 ± 1000 nM and the IC50 (HEK293 cells; Homo sapiens, HEK293) was 9100 ± 1700 nM. For the same compound, the MIC50 [4] was greater than 500 µg/mL and the MIC [4] was greater than 500 µg/mL.

`CN(C)C(=S)N/N=C/c1ccc(CN2CCOCC2)cn1` [HL^2, 5-(Morpholinomethyl)pyridine-2-carboxaldehyde 4,4-Dimethyl-3-thiosemicarbazone] gave an MIC50 [1] of 10 µg/mL (≈ 32.5 µM), an MIC [1] of 400 µg/mL (≈ 1300 µM) and a logD [2] of 0.51. It also gave an IC50 (A2780 cells [3]; [8]) of 10 ± 1 nM, an IC50 (A2780cisR cells; Homo sapiens) of 35 ± 6 nM and an IC50 (HEK293 cells; Homo sapiens, HEK293) of 30 ± 5 nM. It also gave an MIC50 [4] of 70 µg/mL (≈ 228 µM) and an MIC [4] of 100 µg/mL (≈ 325 µM).

For `NC(=NN=Cc1ccc(CN2CCOCC2)cn1)[S][Cu][OH]` [[CuLH41]], the logβ ([5]; EPR) was 10.22(1), the logβ ([5]; UV-vis via CT bands) was 10.42(1) and the logβ ([5]; UV-vis via d-d bands) was 10.45(1). The logβ ([5]; pH-metry) was 10.45(4).

Compound `S=C(NN=Cc1ccc(CN2CCOCC2)cn1)Nc1ccccc1` [HL^5, 5-(Morpholinomethyl)pyridine-2-carboxaldehyde 4-Phenylthiosemicarbazone] has an MIC50 [1] of 10 µg/mL (≈ 28.1 µM), an MIC [1] of 300 µg/mL (≈ 844 µM) and a logD [2] of no less than 2. The IC50 (A2780 cells [3]; [8]) was 310 ± 80 nM, the IC50 (A2780cisR cells; Homo sapiens) was 1100 ± 200 nM and the IC50 (HEK293 cells; Homo sapiens, HEK293) was 670 ± 60 nM. For the same compound, the MIC50 [4] was greater than 500 µg/mL and the MIC [4] was greater than 500 µg/mL.

In the case of `N.N.[Cl][Pt][Cl]` [cisplatin, reference compound], the IC50 (A2780 cells [3]; 72 h exposure) is reported as 440 ± 130 nM, the “RF (resistance factor)” value (A2780cisR cells) is reported as 10.5 and the IC50 (A2780cisR cells) is reported as 4600 ± 300 nM.

`O=C(O)c1cn(C2CC2)c2cc(N3CCNCC3)c(F)cc2c1=O` [CPX, ciprofloxacin, reference compound] showed an MIC50 [1] of 0.5 µg/mL (≈ 1.51 µM), an MIC [1] of 1 µg/mL (≈ 3.02 µM) and an MIC50 [4] of 0.5 µg/mL (≈ 1.51 µM). For the same compound, the MIC [4] was 2 µg/mL (≈ 6.04 µM).

With `[Cl][Cu][S]C(=NN=Cc1ccc(CN2CCOCC2)cn1)N1CCOCC1` [complex 4, [Cu(L^4)Cl]] the “S. aureus MIC50” value [1] was 5 µg/mL, the “S. aureus MIC100” value [1] was 10 µg/mL and the “log D7.4” value [2] was “+0.12 ± 0.01”. For the same compound, the IC50 (A2780 cells [3]; 72 h exposure) was 80 ± 10 nM, the “E1/2 Red1 (DMSO) vs Fc+/Fc” value ([6]; DMSO, vs Fc+/Fc) was “–0.80 V” and the “E1/2 Red1 (DMSO) vs NHE” value ([6]; DMSO, vs NHE (in brackets)) was “–0.16 V”. For the same compound, the “E1/2 Red1 (MeOH) vs Fc+/Fc” value ([6]; MeOH, vs Fc+/Fc) was “–0.49 V”, the “E1/2 Red1 (MeOH) vs NHE” value ([6]; MeOH, vs NHE (in brackets)) was “+0.15 V” and the “cellular accumulation A2780” value (A2780 cells [7]) was 3.2 ± 0.7 nmol Cu/mg protein. The “RF (resistance factor)” value (A2780cisR cells) was 3.3, the IC50 (A2780cisR cells) was 260 ± 40 nM and the “SF (selectivity factor)” value (HEK293 cells) was 3.0. The IC50 (HEK293 cells) was 240 ± 20 nM, the “P. aeruginosa MIC50” value [4] was 100 µg/mL and the “P. aeruginosa MIC100” value [4] was 400 µg/mL.

With `NC(=NN=Cc1ccc(C[NH+]2CCOCC2)cn1)[S][Cu+]` [[CuLH]2+] the logβ ([5]; EPR) was 24.00(1), the logβ ([5]; UV-vis via CT bands) was 24.00(1) and the logβ ([5]; UV-vis via d-d bands) was 23.96(1). For the same compound, the logβ ([5]; pH-metry) was 24.09(3).

In the case of `CSC(=N)NN=Cc1ccc(CN2CCOCC2)cn1` [HL^6, 5-(Morpholinomethyl)pyridine-2-carboxaldehyde S-Methylisothiosemicarbazone], the MIC50 [1] is reported as greater than 500 µg/mL, the MIC [1] is reported as greater than 500 µg/mL and the “S. aureus MIC50” value [1] is reported as greater than 500 µg/mL. The logD [2] was 0.84, the IC50 (A2780 cells [3]; [8]) was 157000 ± 21000 nM and the IC50 (A2780cisR cells; Homo sapiens) was 426000 ± 44000 nM. It also gave an IC50 (HEK293 cells; Homo sapiens, HEK293) of 89000 ± 2000 nM, an MIC50 [4] greater than 500 µg/mL and an MIC [4] greater than 500 µg/mL.

For `NC(=NN=Cc1ccc(CN2CCOCC2)cn1)[S][Cu+]` [[CuL]+], the logβ ([5]; determined via EDTA displacement study) was 19.04(2).

With `CSC(=NN=Cc1ccc(CN2CCOCC2)cn1)[NH][Cu][Cl]` [complex 6, [Cu(L^6)Cl]] the “S. aureus MIC100” value [1] was “NA (NA denotes no antibacterial activity detected (>500 μg/mL))”, the “log D7.4” value [2] was “–0.23 ± 0.01” and the IC50 (A2780 cells [3]; 72 h exposure) was 43000 ± 3000 nM. For the same compound, the “cellular accumulation A2780” value (A2780 cells [7]) was 0.47 ± 0.08 nmol Cu/mg protein, the “RF (resistance factor)” value (A2780cisR cells) was 1.4 and the IC50 (A2780cisR cells) was 62000 ± 6000 nM. For the same compound, the “SF (selectivity factor)” value (HEK293 cells) was 1.7, the IC50 (HEK293 cells) was 72000 nM and the “P. aeruginosa MIC50” value [4] was 200 µg/mL. For the same compound, the “P. aeruginosa MIC100” value [4] was “NA (NA denotes no antibacterial activity detected (>500 μg/mL))”.
